Source: the NIST ThermoML archive (doi:10.1016/j.fluid.2013.11.030)
Numbers after ± are expanded uncertainties. Each block holds one compound with its values, some of them ahead of it.

Conditions: Liquid, Ebulliometric method (Recirculating still)

SMILES: CCCCCCBr [1-bromohexane]
vapor or sublimation pressure (428.5 K): 101.33 ± 1.5 kPa

vapor or sublimation pressure (471.6 K): 101.33 ± 1.4 kPa
SMILES: Cn1ccnc1 [1-methylimidazole]

SMILES: CC(C)=O [acetone]
vapor or sublimation pressure (329.3 K): 101.33 ± 1.5 kPa
